Experiments:
[1] = system: Salmonella enterica Typhimurium (ST) ATCC 14028; assay: Susceptibility test (MIC), broth dilution, Salmonella enterica Typhimurium; assay type: cell-based; details: Salmonella enterica Typhimurium ATCC 14028, 14-20 hour incubation, read-out: Minimum Inhibitory Concentration
Experimental: (§1) The minimum inhibitory concentration (MIC) was determined according to the Clinical and Laboratory Standards Institute (CLSI) guidelines by broth dilution. Bacteria were cultured in an appropriate medium (such as Cation-Adjusted Muller Hinton Broth) for 6-12 hours and diluted into same medium containing 2-fold serial dilutions of antibiotics. MIC values were derived after 14-20 hour incubation, and were the result of at least 3 independent determinations. The MIC study included Gram-negative strains Salmonella enterica Typhimurium (ST) ATCC 14028, E. coli (EC) ATCC 25922, Pseudomonas aeruginosa (PA) ATCC 27853, and Klebsiella pneumoniae (KPN) ATCC 700603 and Gram-positive strain S. aureus (SA) ATCC 259213.

[2] = system: all tested bacterial strains; assay: Susceptibility test, comparison over all tested bacterial strains; assay type: cell-based, Gram-positive and Gram-negative bacteria
Experimental: as §1

[3] = system: Pseudomonas aeruginosa (PA) ATCC 27853; assay: Susceptibility test (MIC), broth dilution, Pseudomonas aeruginosa; assay type: cell-based; details: ATCC27853, Pseudomonas aeruginosa ATCC 27853, 14-20 hour incubation, read-out: Minimum Inhibitory Concentration
Experimental: as §1

[4] = Hydrophobicity (comparison; RP-HPLC retention times in Table 1); assay type: physicochemical
Description: The MIC and cytotoxicity results for previously-described quaternary ammonium COEs COE2-3C, COE2-3C-C4butyl, and COE2-3C-C4hexyl are consistent with previous data (See Limwongyut et al., Chem. Sci. (2020) 11 (31): 8138-8144).

E. coli (EC) ATCC 25922 = assay: Susceptibility test (MIC), broth dilution, E. coli; assay type: cell-based; details: Escherichia coli, ATCC25922, E. coli ATCC 25922, 14-20 hour incubation, read-out: Minimum Inhibitory Concentration
Experimental: as §1

[5] = system: Klebsiella pneumoniae (KPN) ATCC 700603; assay: Susceptibility test (MIC), broth dilution, Klebsiella pneumoniae; assay type: cell-based; details: ATCC700603, Klebsiella pneumoniae ATCC 700603, 14-20 hour incubation, read-out: Minimum Inhibitory Concentration
Experimental: as §1

[6] = system: S. aureus (SA) ATCC 259213; assay: Susceptibility test (MIC), broth dilution, S. aureus; assay type: cell-based; details: Staphylococcus aureus, ATCC259213, read-out: Minimum Inhibitory Concentration
Experimental: as §1

[7] = system: HepG2 (ATCC HB-8065) cells; assay: Cytotoxicity, MTT viability assay, HepG2; assay type: cell-based
Experimental: (§2) Cellular cytotoxicity was assessed using an MTT viability assay. HepG2 (ATCC HB-8065) cells were seeded at 1×10^4 cells/well in 96 well plates over night at 37 °C in DMEM supplemented with 10% FBS before use. Compounds were serially diluted with 2-fold dilution in culture media to afford a concentration ranging from 8 to 1024 μg/mL. After 24 h incubation, 10 μL of a 5 mg/mL solution of MTT was added to each well. After incubation for 2-4 h, upon discard of previous media, 100 μL of DMSO as solubilizing solution was added to each well, and absorbance at 570 nm were measured on a plate reader. Percent viability was determined by dividing background-corrected absorbance measurements by background corrected measurements for untreated cells. The lowest concentration for which percent viability was less than 50% was deemed the cytotoxicity IC50.

[8] = Cytotoxicity, MTT viability assay, HepG2; assay type: cell-based; details: human, hepg2 cells; HepG2, MTT, 24 h incubation, 8 to 1024 μg/mL; lowest concentration with viability less than 50%; read-out: Cytotoxicity (IC50)
Experimental: as §2

[9] = Formula A compared with COE2-3C and COE2-3C-C4butyl
[10] = Formula K and Formula A compared with each other
[11] = Formula C and Formula K compared with each other
[12] = Formula C compared with COE2-3C-C4butyl

Structure (SMILES) | MIC [1] [µg/mL] | activity against all tested bacterial strains [2, 9] | activity against all tested bacterial strains ([2]; Formula A compared with Formula K) | MIC [3] [µg/mL] | hydrophobicity (comparison) [4, 9] | MIC (E. coli (EC) ATCC 25922) [µg/mL] | MIC [5] [µg/mL] | MIC [6] [µg/mL] | cytotoxicity (comparison) [7, 10] | CC50 at 24 h [8] [µg/mL] | activity against all tested bacterial strains [2, 11] | activity against all tested bacterial strains [2, 12] | hydrophobicity (comparison) [4, 11] | cytotoxicity (comparison) [7, 11] | cytotoxicity (comparison) [7, 12]
N=C(NCCCOc1cc(/C=C/c2ccc(/C=C/c3cc(OCCCNC(=N)C4CC4)cc(OCCCNC(=N)C4CC4)c3)cc2)cc(OCCCNC(=N)C2CC2)c1)C1CC1 [Formula A] | 1 | considerably higher activity against all tested bacterial strains | more active against all tested bacterial strains | 2 | intermediate hydrophobicity | 1 | 4 | 0.5 | similar | > 1020 |  |  |  |  | 
CN(CCCOc1cc(/C=C/c2ccc(/C=C/c3cc(OCCCN(C)C(=N)C4CC4)cc(OCCCN(C)C(=N)C4CC4)c3)cc2)cc(OCCCN(C)C(=N)C2CC2)c1)C(=N)C1CC1 [Formula B] | 1 |  |  | 8 |  | 1 | 8 | 1 |  | 1020 |  |  |  |  | 
CCCN(CCCOc1cc(/C=C/c2ccc(/C=C/c3cc(OCCCN(CCC)C(=N)C4CC4)cc(OCCCN(CCC)C(=N)C4CC4)c3)cc2)cc(OCCCN(CCC)C(=N)C2CC2)c1)C(=N)C1CC1 [Formula C] | 2 |  |  | 32 |  | 2 | 8 | 1 |  | 16 | identical activities against all tested bacterial strains | more active against all tested bacterial strains | different | different cytotoxicity | similar
CCC(=N)N(C)CCCOc1cc(/C=C/c2ccc(/C=C/c3cc(OCCCN(C)C(=N)CC)cc(OCCCN(C)C(=N)CC)c3)cc2)cc(OCCCN(C)C(=N)CC)c1 [Formula D] | 2 |  |  | 8 |  | 1 | 16 | 1 |  | > 1020 |  |  |  |  | 
CCC(=N)N(CCCOc1cc(/C=C/c2ccc(/C=C/c3cc(OCCCN(C(=N)CC)C4CC4)cc(OCCCN(C(=N)CC)C4CC4)c3)cc2)cc(OCCCN(C(=N)CC)C2CC2)c1)C1CC1 [Formula E] | 2 |  |  | 16 |  | 2 | 8 | 1 |  | 128 |  |  |  |  | 
CCCN(CCCOc1cc(/C=C/c2ccc(/C=C/c3cc(OCCCN(CCC)C(=N)CC)cc(OCCCN(CCC)C(=N)CC)c3)cc2)cc(OCCCN(CCC)C(=N)CC)c1)C(=N)CC [Formula F] | 2 |  |  | 16 |  | 2 | 8 | 1 |  | 32 |  |  |  |  | 
N=C(CC1CC1)NCCCOc1cc(/C=C/c2ccc(/C=C/c3cc(OCCCNC(=N)CC4CC4)cc(OCCCNC(=N)CC4CC4)c3)cc2)cc(OCCCNC(=N)CC2CC2)c1 [Formula G] | 2 |  |  | 8 |  | 2 | 4 | 1 |  | 256 |  |  |  |  | 
C/N=C(\C)NCCCOc1cc(/C=C/c2ccc(/C=C/c3cc(OCCCN/C(C)=N/C)cc(OCCCN/C(C)=N/C)c3)cc2)cc(OCCCN/C(C)=N/C)c1 [Formula H] | 2 |  |  | 32 |  | 2 | 16 | 1 |  | > 1020 |  |  |  |  | 
C(=C\c1cc(OCCCNC2=NCCC2)cc(OCCCNC2=NCCC2)c1)/c1ccc(/C=C/c2cc(OCCCNC3=NCCC3)cc(OCCCNC3=NCCC3)c2)cc1 [Formula J] | 2 |  |  | 16 |  | 1 | 16 | 1 |  | 1020 |  |  |  |  | 
C/C(=N\C1CC1)NCCCOc1cc(/C=C/c2ccc(/C=C/c3cc(OCCCN/C(C)=N/C4CC4)cc(OCCCN/C(C)=N/C4CC4)c3)cc2)cc(OCCCN/C(C)=N/C2CC2)c1 [Formula K] | 2 |  |  | 32 |  | 2 | 8 | 1 | similar | > 1020 | identical activities against all tested bacterial strains |  | different | different cytotoxicity | 

Source: US20260374731A1, “ANTIMICROBIAL CONJUGATED OLIGOELECTROLYTES AS BROAD-SPECTRUM ANTIBIOTICS” (The Regents of the University of California, priority 2023, published 2026)
